Test results from patent publication US20230137306A1 (priority 2020, published 2023).
Structures can show the parent of a compound that is named as a salt. Where two headings read alike, the source gives them in different places.

Key:
SARS-CoV-2 [1] = details: human, in vivo; cited from earlier work
[2] = tested on: membrane fusion induced by the S protein of SARS-CoV-2; format: cell-based, human
[3] = tested on: membrane fusion induced by the S protein of SARS-CoV; format: cell-based, human; details: 293FT target cells, nafamostat 0.1 μM to 10 μM, gabexsate 1 μM to 10 μM, FIG. 6
[4] = tested on: RNA viruses such as norovirus, bunyavirus, arenavirus, flavivirus and Filovirus; details: cited from earlier work
SARS-CoV = details: cited from earlier work
COVID-19 = details: randomized controlled trials; cited from earlier work
SARS-CoV-2 [5] = details: read-out: 50% infection inhibitory concentration (IC50); Vero E6 cells, TMPRSS2 not expressed; Wang et al.; cited from earlier work
[6] = tested on: membrane fusion induced by the S protein of SARS-CoV-2 (Calu-3 cells); format: cell-based, human
[7] = tested on: membrane fusion induced by the S protein of SARS-CoV-2 (H3255 cells); format: cell-based, human
[8] = healthy adult males, cited from earlier work
[9] = tested on: membrane fusion caused by the S protein of MERS-CoV; details: cited from earlier work
[10] = Pharmacokinetics, intravenous drip in healthy adult males; details: 20 mg intravenous drip over 90 minutes; corresponds to 61.5 ng/mL

## CCN(CCO)CCCC(C)Nc1ccnc2cc(Cl)ccc12 (stereo not drawn) [Hydroxychloroquine]
SARS-CoV-2 [1]
  removal of SARS-CoV-2 from the nasopharynx: removed at high frequency

## CN(C)C(=O)COC(=O)Cc1ccc(OC(=O)c2ccc(NC(=N)N)cc2)cc1 [camostat mesylate, dimethylcarbamoylmethyl 4-(4-guanidinobenzoyloxy)phenylacetate monomethanesulfonate]
[2]
  inhibitory effect on membrane fusion (relative cell fusion, RL activity): membrane fusion was inhibited
  inhibitory effect relative to that of nafamostat mesylate: about 1/10
[3]
  inhibitory effect on membrane fusion (relative cell fusion, RL activity): second highest inhibitory effect

## NC(=O)c1nc(F)c[nH]c1=O [favipiravir]
[4]
  antiviral activity against RNA viruses: exhibits antiviral activity

## Cc1cccc(C)c1OCC(=O)N[C@@H](Cc1ccccc1)[C@@H](O)C[C@H](Cc1ccccc1)NC(=O)[C@H](C(C)C)N1CCCNC1=O [lopinavir]
SARS-CoV
  inhibitory activity against SARS-CoV: exhibited inhibitory activity
COVID-19
  improvement of the symptoms of COVID-19: could not improve the symptoms

## N=C(N)c1ccc2cc(OC(=O)c3ccc(N=C(N)N)cc3)ccc2c1 [nafamostat mesylate, 6-amidinonaphthalen-2-yl 4-guanidinobenzoate bis(methanesulfonate)]
SARS-CoV-2 [5]
  IC50: 22.5 µM
[6]
  concentration lower than that used for the 293FT cells: about 10 fold
  inhibitory activity against membrane fusion, stronger than that of camostat mesylate: about 10 fold
  suppression of membrane fusion: almost completely suppressed
[7]
  suppression of membrane fusion: almost completely suppressed
[8]; 10 mg intravenous drip over 90 minutes
  maximum blood concentration of unchanged agent: 16.4 ng/mL
[8]; 20 mg intravenous drip over 90 minutes
  maximum blood concentration of unchanged agent: 61.5 ng/mL
[9]
  inhibition of membrane fusion caused by the S protein of MERS-CoV: effectively inhibits
[10]
  maximum blood concentration converted to: 114 nM

## CC(C)c1nc(CN(C)C(=O)N[C@H](C(=O)N[C@@H](Cc2ccccc2)C[C@H](O)[C@H](Cc2ccccc2)NC(=O)OCc2cncs2)C(C)C)cs1 [ritonavir]
SARS-CoV
  inhibitory activity against SARS-CoV: exhibited inhibitory activity
COVID-19
  improvement of the symptoms of COVID-19: could not improve the symptoms
